In patent US5968526A, “T cell epitopes of the major allergens from Dermatophagoides (house dust mite)” (Immulogic Pharamaceutical Corporation, priority 1995, dated 1999):

Assays:
[1] = system: T cell cultures reactive with Der p I from house dust mite-allergic subjects; test: secondary T cell proliferation assay, Group I (Der p I) overlapping and candidate/unique peptides; percent of T cell reactivity; assay type: cell-based, human; conditions: patient 1733; highest S.I. ≥2.0 recorded
Excerpt: To determine whether a peptide (candidate peptide) or a combination of candidate peptides are likely to comprise a sufficient percentage of the T cell reactivity of house dust mite protein allergens, to induce T cell nonresponsiveness in a substantial percentage of a population of individuals sensitive to house dust mite allergen, an algorithm can be used. In accordance with one such algorithm, a set of overlapping peptides is produced by systematically dividing the protein allergen(s) of interest into al least two overlapping peptide regions of desired lengths (e.g., of about 12-30 amino acid residues in length, preferably not longer than about 25 amino acid residues in length with about 5-15 amino acid residues of overlap). This division into peptide regions can be arbitrary, can be made according to an algorithm, or can be wholly or partially based on regions of house dust mite Group I and/or Group II protein allergens known to comprise at least one T cell epitope. Preferably, at least 50% of the entire house dust mite protein allergen sequence and more preferably, the entire house dust mite protein allergen sequence is divided into two or more peptides. A human T cell stimulation index is determined for each of the peptides in an in vitro T cell proliferation assay as described herein for each individual tested in a population of individuals sensitive to the protein antigen. For example both WO93/08279 and WO94/24281 disclose T cell studies with overlapping peptides derived from Der p I, Der p II, Der f I and Der f II. A candidate peptide or combination of candidate peptides is selected based, at least in part, on the mean human T cell stimulation index of the candidate peptide in the set of peptides tested and the positivity index of the candidate peptide in the set of peptides tested (see, FIGS. 3 and 4). The human T cell stimulation index for the candidate peptide(s) is summed. For each individual, the human T cell stimulation index for the candidate peptide(s) is divided by the sum of the human T cells stimulation indices of the remaining peptides in the set of peptides tested to determine a percent of T cell reactivity as shown below:
Alternatively, the presence of T cell epitopes in the candidate peptide dependent on amino acids residues in an overlapping peptide located at either the N-terminus or C-terminus of the candidate peptide in the amino acid sequence of the protein antigen, but which epitopes are not present in the candidate peptide can be considered in calculating the percent of T cell reactivity in the candidate peptide by use of the following formula: [formula]
In this formula, "NT flanking peptide" refers to a peptide which comprises amino acid residues which overlap with amino acid residues located at the N-terminus of the candidate peptide in the amino acid sequence of the protein antigen from which the peptide is derived; "CT flanking peptide" refers to a peptide which comprises amino acid residues which overlap with amino acid residues located a the C-terminus of the candidate peptide in the amino acid sequence of the protein antigen from which the peptide is derived. In this calculation stimulation indices for the candidate peptide, the N-terminal flanking peptide and the C-terminal flanking peptide are added and divided by the sum total of the stimulation indices for the entire set of overlapping peptides obtain a percent of T cell reactivity for the candidate peptide. If a combination of two or more candidate peptides is selected each of which contains amino acid residues which overlap, this calculation cannot be used to determine a percent of T cell reactivity for each candidate peptide separately. However, a total percent of T cell reactivity for the combination of candidate peptides can be obtained. In this situation, the stimulation indices for all of the candidate peptides which overlap is included in the calculation. […]

[2] = system: PBMC from mite-allergic patient; test: primary T cell (PBMC) proliferation, mite-allergic patient, tritiated thymidine; assay type: cell-based, human; conditions: medium 1071 ± 30
Summary of the method: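 Ficoll-purified PBMC (5×10^4/well, triplicate) from one mite-allergic donor cultured 7 days at 37 °C with graded concentrations of purified Der p I, Der p II or their peptides in RPMI-1640 plus 5% human AB serum. 1 μCi ^3H-thymidine added for 16 h; CPM counted, stimulation index = antigen CPM/medium-only CPM.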

[3] = system: T cell lines primed in vitro to Der p I; test: secondary proliferation of Der p I-primed T cell lines (Examples V, VII, XI); assay type: cell-based, human; conditions: overlapping Der p I peptides; 33 positive experiments
Summary of the method: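 PBMC were primed with native or recombinant Der p I (10 or 20 μg/ml) for 7 days, then expanded with IL-2 and IL-4. Resting T cells (2×10^4) were cultured 3 days with irradiated autologous EBV-B cells or PBMC and titrated protein or peptides, then pulsed 16 h with 1 μCi ³H-thymidine. S.I. was peak-response CPM over medium-only CPM, with S.I. ≥2.0 scored positive.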

human IgE = test: direct binding ELISA of IgE to mite allergen proteins and peptides; conditions: data not shown
Protocol: The coating antigens were removed and the wells are blocked with 0.5% gelatin in PBS, 300 μl/well for 2 hours at room temperature. Pooled human plasma (a mix of plasma samples from 20 patients that were skin test positive for commerical mite extract) was serially diluted with PBS-Tween 20 (PBS with 0.05% nonionic detergent Tween-20 Sigma, St. Louis, Mo.) and 100 μl/well a.backslash.was added and incubated overnight at 4° C. (plasma dilutions were tested in duplicate). The second antibody (biotinylated goat anti-Human IgE, 1:1000, Kirkegaard & Perry Laboratories Inc, Gaithersburg, Md.), was added at 100 μl/well for one hour at room temperature. This solution was removed and streptavidin-HRPO, 1:10000, (Southern Biotechnology Associates, Inc., Birmingham, Ala.) was then added at 100 μl/well for one hour at room temperature (all wells are washed three times with PBS-Tween between each incubation step). TMB Membrane Peroxidase Substrate system (Kirkegaard & Perry Laboratories) was freshly miced, and added at […]. The color was allowed to develop for 2-5 minutes. The reaction was stopped by the addition of […] of 1M phosphoric acid. Plates were read on a Microplate IL310 Autoreader (Biotech Instruments, Winooski, Vt.) with a 450 nm filter. The absorbance levels of duplicate wells were averaged. The order of coating antigens listed vertically in these figure legends corresponds in orDer from left to right to the coating antigens listed for each histogram.
The antigen preparation that was used as a positive control was a mixture of the four major biochemically purified mite allergens (term PMA for Purified Mite Allergen); Der f I, Der f II, Der p I and Der p II. The stock was generated at a concentration of 100 μgs of each protein per millimeter or 400 μgs total protein/ml. This preparation was used on each coated ELISA plate.

mast cells or basophils = test: histamine release; assay type: cell-based, human; conditions: data not shown
Protocol: To determine whether a peptide which binds IgE results in the release of mediators, a histamine release assay can be performed using standard reagents and protocols obtained for example, from Amac, Inc. (Westbrook, Me.). Briefly, a buffered solution of a peptide to be tested is combined with an equal volume of whole heparinized blood from an allergic subject. After mixing and incubation, the cells are pelleted and the supernatants are processed and analyzed using a radioimmunoassay to determine the amount of histamine released.

pH-solubility profile = assay type: physicochemical; conditions: at a pH in the range pH 6 to pH 8
Protocol: (§1) 50 mM sodium phosphate stock solutions:
(§2) Stock solution A: 0.66 g […] of monobasic sodium phosphate monohydrate U.S.P. and 50 mg EDTA disodium dihydrate, U.S.P. were dissolved in 100 mL of WFI. The solution was filtered through a 0.2 micron filter
(§3) Stock solution B: 0.71 g […] of dibasic sodium phosphate U.S.P. were disolved in 100 ml WFI. The solution was filtered through a 0.2 micron filter.
(§4) 2. Initial peptide dispersions
(§5) Dispersion A: 3.0 mg of each candidate peptide,DPI-21.2 (SEQ. ID. NO. 28), DFI-22.2 (SEQ. ID. NO. 93), DFI-23.31(SEQ. ID. NO. 165), DFI-26.6 (SEQ. ID. NO. 168), DPII-20.9 (SEQ. ID. NO. 169), DPII-22.14 (SEQ. ID. NO. 180) and DPII-25.15 (SEQ. ID. NO. 188), was weighed out separately and placed in separate 1.5 mL eppendoff vials with 600 μL of stock solution A. The composition was agitated for 1 seconds to mix well.
as §5, with “Dispersion B:” for “Dispersion A:”, “each peptide, DPI-21.2” for “each candidate peptide,DPI-21.2”, “solution B.” for “solution A.”, “The mixture” for “The composition”, “for 5” for “for 1”
(§6) Dispersions A and B were sonicated for 2 minutes for good homogeneity. A small volume was pipetted from each dispersion into a labeled eppendoff vial according to the following volume ratio:
(§7) The resultant solutions/suspensions were stored in the dark at about 22° C.±2 for 24 hours without agitation. The solutions were filtered and filtrates were analyzed for pH and peptide concentration.
(§8) The concentration of filtered peptide solutions was determined by HPLC analysis. In this experiment, the solubility of peptide at each pH is defined as the amount of peptide remaining in solution after filtration through a membrane filter having a 0.2 micrometer pore size. The extent of degradation of peptides was estimated by calculating the percent of total degradant peak area over the total peak area.
The pH values with respect to the solubility values was plotted and are shown in FIG. 37 for each respective peptide. As shown in the solubility curve for each peptide as represented in FIG. 37, peptides DPI-21.2 (SEQ. ID. NO. 28), DFI-22.2 (SEQ. ID. NO. 93), DFI-23.31 (SEQ. ID. NO. 165), DFI-26.6 (SEQ. ID. NO. 168), DPII-20.9 (SEQ. ID. NO. 169), DPII-22.14 (SEQ. ID. NO. 180) and DPII-25.15 (SEQ. ID. NO. 188) are each soluble at greater than 3 mg/ml at a pH in the pH range of pH 6 to pH 8.

[4] = pH-stability profile / solution stability (HPLC); assay type: physicochemical; conditions: pH 6 to pH 8
Protocol: as §1, §2, §3, §4, §5
as §5, with “Dispersion B:” for “Dispersion A:”, “each peptide, DPI-21.2” for “each candidate peptide,DPI-21.2”, “solution B.” for “solution A.”, “The mixture” for “The composition”, “for 5” for “for 1”
as §6, §7, §8
The pH-stability profiles for each peptide DPI-21.2 (SEQ. ID. NO. 28), DFI-22.2 (SEQ. ID. NO. 93), DFI-23.31(SEQ. ID. NO. 165), DFI-26.6 (SEQ. ID. NO. 168), DPII-20.9 (SEQ. ID. NO. 169), DPII-22.14 (SEQ. ID. NO. 180) and DPII-25.15 (SEQ. ID. NO. 188) in equal concentration combination at 3, 2, and 1 mg/ml per peptide and prepared in duplicate as described above with one set stored at about 5° C. for 24 hours and one set stored at about 22° C.±2 for 24 hours, were calculated and tabulated as a function of the percentage of total of degradant peak area (FIG. 38).

[5] = system: T cell lines primed in vitro to Der f I; test: secondary proliferation of Der f I-primed T cell lines (Examples VI, VII, XI); assay type: cell-based, human; conditions: Der f I primed; 8 positive experiments; FIG. 8
Summary of the method: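 PBMC from house dust mite-allergic patients were primed in vitro with recombinant or affinity-purified Der f I at 20 μg/ml (or 10 μg/ml), then rechallenged with Der f I peptides. Antigen-presenting cells were x-irradiated autologous PBMC (3500 Rads) or EBV-transformed B cells (25,000 Rads). Read-out was T cell proliferation.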

Substance: DP I-10: Der p I peptide (QGVDYWIVRNSWDTNWGDNGYGYF)
- T cell stimulation index (S.I.) [1]: 0
- CPM ± S.D. ([2]; 10 μg/ml): 1936 ± 50 CPM
- CPM ± S.D. ([2]; 30 μg/ml): 3042 ± 89 CPM
- CPM ± S.D. ([2]; 100 μg/ml): 2644 ± 63 CPM
- T cell reactivity [3]: significant regions of T cell reactivity

Substance: DP II-25.15: modified Der p II peptide; unique peptide (DEETVKVMGDDGVLACAIATHAKIRDEE)
- IgE reactivity, candidate peptides (human IgE): negative
- histamine release (mast cells or basophils): negative
- solubility (pH-solubility profile): greater than 3 mg/ml
- stability (in words) [4]: acceptable solution stability

Substance: DP I-14: Der p I peptide (QSCRRPNAQRFGISNYCQI)
- T cell stimulation index (S.I.) [1]: 2.3
- T cell response to Der p I peptides [5]: respond significantly
